{
  "source": "patent US8192962B2",
  "about": "“Processes for detecting toxic substances” (Daikin Industries, Ltd., priority 2001, dated 2012)",
  "test_system": "Genes belonging to other category",
  "assay": "DNA chip mRNA expression in yeast, genes belonging to other category (Table 9)",
  "assay_type": "cell-based, Saccharomyces cerevisiae S288C",
  "in_short": "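Ratios compare mRNA levels in stressed and control S. cerevisiae. Each toxicant was applied for two hours to log-phase cultures at 25° C. at a sub-lethal, growth-inhibiting level; fluorescent cDNA (Cy3- or Cy5-dUTP) was hybridized to a genome-wide yeast chip for over 12 h at 65° C.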",
  "data": [
    {"substance": "manganese ethylenebis(dithiocarbamate) [(8)]", "values": [
      {"measurement": "The level of expressed mRNA in the presence of chemical substance/The level of expressed mRNA in the absence of chemical substance", "setting": "yeast gene YKL008C", "result": 1.2},
      {"measurement": "The level of expressed mRNA in the presence of chemical substance/The level of expressed mRNA in the absence of chemical substance", "setting": "yeast gene YKL013C", "result": 0.9},
      {"measurement": "The level of expressed mRNA in the presence of chemical substance/The level of expressed mRNA in the absence of chemical substance", "setting": "yeast gene YKL039W", "result": 0.8},
      {"measurement": "The level of expressed mRNA in the presence of chemical substance/The level of expressed mRNA in the absence of chemical substance", "setting": "yeast gene YKL096W", "result": 0.5},
      {"measurement": "The level of expressed mRNA in the presence of chemical substance/The level of expressed mRNA in the absence of chemical substance", "setting": "yeast gene YKL165C", "result": 1.5},
      {"measurement": "The level of expressed mRNA in the presence of chemical substance/The level of expressed mRNA in the absence of chemical substance", "setting": "yeast gene YKL193C", "result": 1.4},
      {"measurement": "The level of expressed mRNA in the presence of chemical substance/The level of expressed mRNA in the absence of chemical substance", "setting": "yeast gene YLR120C", "result": 0.9},
      {"measurement": "The level of expressed mRNA in the presence of chemical substance/The level of expressed mRNA in the absence of chemical substance", "setting": "yeast gene YLR136C", "result": 1.1},
      {"measurement": "The level of expressed mRNA in the presence of chemical substance/The level of expressed mRNA in the absence of chemical substance", "setting": "yeast gene YLR178C", "result": 0.9},
      {"measurement": "The level of expressed mRNA in the presence of chemical substance/The level of expressed mRNA in the absence of chemical substance", "setting": "yeast gene YLR250W", "result": 1.3},
      {"measurement": "The level of expressed mRNA in the presence of chemical substance/The level of expressed mRNA in the absence of chemical substance", "setting": "yeast gene YLR327C", "result": 2.2},
      {"measurement": "The level of expressed mRNA in the presence of chemical substance/The level of expressed mRNA in the absence of chemical substance", "setting": "yeast gene YLR356W", "result": 0.7},
      {"measurement": "The level of expressed mRNA in the presence of chemical substance/The level of expressed mRNA in the absence of chemical substance", "setting": "yeast gene YLR362W", "result": 1.4},
      {"measurement": "The level of expressed mRNA in the presence of chemical substance/The level of expressed mRNA in the absence of chemical substance", "setting": "yeast gene YLR391W", "result": 0.7},
      {"measurement": "The level of expressed mRNA in the presence of chemical substance/The level of expressed mRNA in the absence of chemical substance", "setting": "yeast gene YLR429W", "result": 1.0},
      {"measurement": "The level of expressed mRNA in the presence of chemical substance/The level of expressed mRNA in the absence of chemical substance", "setting": "yeast gene YMR004W", "result": 1.0},
      {"measurement": "The level of expressed mRNA in the presence of chemical substance/The level of expressed mRNA in the absence of chemical substance", "setting": "yeast gene YMR094W", "result": 1.0},
      {"measurement": "The level of expressed mRNA in the presence of chemical substance/The level of expressed mRNA in the absence of chemical substance", "setting": "yeast gene YMR104C", "result": 0.9},
      {"measurement": "The level of expressed mRNA in the presence of chemical substance/The level of expressed mRNA in the absence of chemical substance", "setting": "yeast gene YMR219W", "result": 1.1},
      {"measurement": "The level of expressed mRNA in the presence of chemical substance/The level of expressed mRNA in the absence of chemical substance", "setting": "yeast gene YMR226C", "result": 1.6},
      {"measurement": "The level of expressed mRNA in the presence of chemical substance/The level of expressed mRNA in the absence of chemical substance", "setting": "yeast gene YMR275C", "result": 0.8},
      {"measurement": "The level of expressed mRNA in the presence of chemical substance/The level of expressed mRNA in the absence of chemical substance", "setting": "yeast gene YMR276W", "result": 0.8},
      {"measurement": "The level of expressed mRNA in the presence of chemical substance/The level of expressed mRNA in the absence of chemical substance", "setting": "yeast gene YMR314W", "result": 1.2},
      {"measurement": "The level of expressed mRNA in the presence of chemical substance/The level of expressed mRNA in the absence of chemical substance", "setting": "yeast gene YNL006W", "result": 1.1},
      {"measurement": "The level of expressed mRNA in the presence of chemical substance/The level of expressed mRNA in the absence of chemical substance", "setting": "yeast gene YNL007C", "result": 0.8},
      {"measurement": "The level of expressed mRNA in the presence of chemical substance/The level of expressed mRNA in the absence of chemical substance", "setting": "yeast gene YNL093W", "result": 0.8},
      {"measurement": "The level of expressed mRNA in the presence of chemical substance/The level of expressed mRNA in the absence of chemical substance", "setting": "yeast gene YNL333W", "result": 2.1},
      {"measurement": "The level of expressed mRNA in the presence of chemical substance/The level of expressed mRNA in the absence of chemical substance", "setting": "yeast gene YNR010W", "result": 1.1},
      {"measurement": "The level of expressed mRNA in the presence of chemical substance/The level of expressed mRNA in the absence of chemical substance", "setting": "yeast gene YNR069C", "result": 1.4},
      {"measurement": "The level of expressed mRNA in the presence of chemical substance/The level of expressed mRNA in the absence of chemical substance", "setting": "yeast gene YOL013C", "result": 1.0},
      {"measurement": "The level of expressed mRNA in the presence of chemical substance/The level of expressed mRNA in the absence of chemical substance", "setting": "yeast gene YOL164W", "result": 1.0},
      {"measurement": "The level of expressed mRNA in the presence of chemical substance/The level of expressed mRNA in the absence of chemical substance", "setting": "yeast gene YOR036W", "result": 1.4},
      {"measurement": "The level of expressed mRNA in the presence of chemical substance/The level of expressed mRNA in the absence of chemical substance", "setting": "yeast gene YOR117W", "result": 1.0},
      {"measurement": "The level of expressed mRNA in the presence of chemical substance/The level of expressed mRNA in the absence of chemical substance", "setting": "yeast gene YOR124C", "result": 1.3},
      {"measurement": "The level of expressed mRNA in the presence of chemical substance/The level of expressed mRNA in the absence of chemical substance", "setting": "yeast gene YOR132W", "result": 1.2},
      {"measurement": "The level of expressed mRNA in the presence of chemical substance/The level of expressed mRNA in the absence of chemical substance", "setting": "yeast gene YOR157C", "result": 1.2},
      {"measurement": "The level of expressed mRNA in the presence of chemical substance/The level of expressed mRNA in the absence of chemical substance", "setting": "yeast gene YOR181W", "result": 0.7},
      {"measurement": "The level of expressed mRNA in the presence of chemical substance/The level of expressed mRNA in the absence of chemical substance", "setting": "yeast gene YOR185C", "result": 1.4},
      {"measurement": "The level of expressed mRNA in the presence of chemical substance/The level of expressed mRNA in the absence of chemical substance", "setting": "yeast gene YOR198C", "result": 1.3},
      {"measurement": "The level of expressed mRNA in the presence of chemical substance/The level of expressed mRNA in the absence of chemical substance", "setting": "yeast gene YOR259C", "result": 1.1},
      {"measurement": "The level of expressed mRNA in the presence of chemical substance/The level of expressed mRNA in the absence of chemical substance", "setting": "yeast gene YOR261C", "result": 2.6},
      {"measurement": "The level of expressed mRNA in the presence of chemical substance/The level of expressed mRNA in the absence of chemical substance", "setting": "yeast gene YOR288C", "result": 1.9},
      {"measurement": "The level of expressed mRNA in the presence of chemical substance/The level of expressed mRNA in the absence of chemical substance", "setting": "yeast gene YOR355W", "result": 0.8},
      {"measurement": "The level of expressed mRNA in the presence of chemical substance/The level of expressed mRNA in the absence of chemical substance", "setting": "yeast gene YOR383C", "result": 1.0},
      {"measurement": "The level of expressed mRNA in the presence of chemical substance/The level of expressed mRNA in the absence of chemical substance", "setting": "yeast gene YPL089C", "result": 0.8},
      {"measurement": "The level of expressed mRNA in the presence of chemical substance/The level of expressed mRNA in the absence of chemical substance", "setting": "yeast gene YPL109C", "result": 1.1},
      {"measurement": "The level of expressed mRNA in the presence of chemical substance/The level of expressed mRNA in the absence of chemical substance", "setting": "yeast gene YPL149W", "result": 1.1},
      {"measurement": "The level of expressed mRNA in the presence of chemical substance/The level of expressed mRNA in the absence of chemical substance", "setting": "yeast gene YPL154C", "result": 0.8},
      {"measurement": "The level of expressed mRNA in the presence of chemical substance/The level of expressed mRNA in the absence of chemical substance", "setting": "yeast gene YPR103W", "result": 1.0},
      {"measurement": "The level of expressed mRNA in the presence of chemical substance/The level of expressed mRNA in the absence of chemical substance", "setting": "yeast gene YPR108W", "result": 1.6}
    ]}
  ]
}
